A short description of data set [1]: Measurement of particle size, polydispersity index and zeta potential of lipid nanoparticle (Zetasizer). The data set is classed as physicochemical. The essentials:
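Dialysed LNP solution diluted in ultrapure water; particle size taken as Z-average and PDI by dynamic light scattering (Zetasizer). Zeta potential measured with pH 7.4 Tris-HCl as diluent.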

A short description of data set [2]: siRNA / mRNA encapsulation rate of lipid nanoparticle (RiboGreen). The data set is classed as physicochemical. The essentials:
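LNP solution was read with RiboGreen (ex 480/em 520 nm) with and without 1% Triton X-100 disruption (2 pmol siRNA or mRNA per 40 μL). Encapsulation (%) = (a−b)/a×100, a = total and b = free RNA signal, each a blank-subtracted mean of three readings.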

Data set [3] deals with HT1080-EGFP (human/fibrosarcoma) cells. Description: Evaluation of toxicity: LDH assay. Particulars: lipid nanoparticle containing siRNA; absorbance relative to control cells without lipid nanoparticle set at 1.00. Format: cell-based. The protocol:
A. Provision of Cells • (i) A liquid medium (DMEM/Ham's F12, FBS+, P/S+) (FBS: fetal bovine serum, P/S: antibiotic) was taken out from a refrigerator and temperature-controlled in an incubator set at 37° C. • (ii) A cryotube containing the cells was taken out from a −80° C. freezer and thawed at once in an incubator set at 37° C. • (iii) A stock solution of the thawed cells was collected in a capped test tube. • (iv) The tube containing the cells was washed with the liquid medium, and the wash was also collected in the test tube. • (v) The tube was subjected to a centrifuge to precipitate the cells. • (vi) The supernatant was aspirated, and the liquid medium was added and gently tapped to disperse the cells. • (vii) A small amount of the cells-dispersed liquid medium was collected, and the number of cells was observed and counted under a microscope. • (viii) The cells were seeded in a 24-well plate such that the number of cells was 2×10^4 cells per well. For the plate for an LDH assay described later, the cells were seeded in a 96-well plate such that the number of cells was 4×10^3 cells per well. • (ix) The 24-well plate or the 96-well plate was placed in an incubator, and the cells were cultured for 24 hours under conditions of 37° C. and 5% CO2.
The introduction of lipid nanoparticles into cells for an LDH assay described later was carried out as follows. • (i) A 96-well plate was taken out from an incubator. • (ii) The liquid medium supernatant in the 96-well plate was aspirated and washed with phosphate buffered saline (PBS). • (iii) 160 μL of a liquid medium containing 10% FBS (FBS+/P/S+) was added to the washed 96-well plate. In addition, 40 μL of an LNP solution having an adjusted concentration was added. • (iv) The 96-well plate was placed in the incubator, and the cells were cultured for 24 hours under conditions of 37° C. and 5% CO2.
For Examples 1 to 9, a CCK-8 assay or an LDH assay was carried out to measure the metabolic activity of viable cells and relatively quantify the number of surviving cells to evaluate the toxicity of lipid nanoparticles.
An LDH assay was carried out by using a viable cell counting kit (DOJINDO LABORATORIES, Cytotoxicity LDH Assay Kit-WST) as follows. • (i) 20 μL of a lysis buffer was added to each of positive control wells and incubated at 37° C. for 30 minutes in an incubator. • (ii) 100 μL of the supernatant was taken from each well and transferred to a 96-well plate for measurement. • (iii) 100 μL of the reagent mixture attached to the kit was added to all the wells, and a color reaction was carried out for 30 minutes at room temperature with exclusion of light. • (iv) 50 μL of the stop solution reagent attached to the kit was added to all the wells. • (v) The 96-well plate was measured under conditions of a measurement wavelength of 490 nm and a target wavelength of 630 nm with a plate reader (manufactured by TECAN, Infinite M200) to calculate the absorbance. The absorbance was calculated with the absorbance of control cells to which no lipid nanoparticle was added set at 1.00. When the obtained value was 0.50 or less, a rating of double-circle (excellent) was given, when the obtained value was more than 0.50 and 1.0 or less, a rating of circle (good) was given, when the obtained value was more than 1.0 and less than 6.0, a rating of triangle (fair) was given, and when the obtained value was 6.0 or more, a rating of X-mark (poor) was given.

Where [4] appears, read: lipid nanoparticle containing siRNA, main lipid/DPPC/cholesterol=45/10/45, Z-average in ultrapure water.
The mark [5] stands for this setting: lipid nanoparticle containing siRNA, main lipid/DPPC/cholesterol=45/10/45, ultrapure water.
The mark [6] stands for this setting: lipid nanoparticle containing siRNA, pH 7.4 Tris-HCl.
Setting [7] is: siRNA encapsulation rate of lipid nanoparticle.
The mark [8] stands for this setting: mRNA lipid nanoparticle for in vivo experiment, PEG-modified lipid (PEG2000-DMG 1.5 mol %) present.
Setting [9] is: mRNA lipid nanoparticle for in vivo experiment, PEG-modified lipid absent.

SMILES strings stand for the structures.

Results on 7 molecules are retold here after US20240148664A1, “LIPID AND COMPOSITION” (SOGO PHARMACEUTICAL CO., LTD., priority 2021, published 2024).

Regarding `CCCCCCCC/C=C\CCCCCCCCC(CCCCCCC/C=C\CCCCCCCC)OC(=O)[C@H](CCSC)NC(=O)[C@@H](N)CCCNC(=N)N` (stereo partly shown) [Example 6, (9Z,27Z)-hexatriaconta-9,27-dien-18-yl arginylmethioninate], in data set [1] (setting [4]), the “Particle size (nm)” value was determined as 125.9 nm. The PDI in data set [1] (setting [5]) was 0.118. The “Zeta potential (mV)” value in data set [1] (setting [6]) worked out at 21.9 mV. Besides, in data set [2] (setting [7]), the “Encapsulation rate (%)” value worked out at 100%. Besides, in data set [3], the “LDH Assay” value was “◯ (when the obtained value was more than 0.50 and 1.0 or less, a rating of circle (good) was given)”.

As to `CCCCCCCC/C=C\CCCCCCCCC(CCCCCCC/C=C\CCCCCCCC)OC(=O)C(CCC(=O)O)NC(=O)C(N)CCCNC(=N)N` (stereo not shown) [Example 2, 4-(2-amino-5-guanidinopentanamido)-5-(((9Z,27Z)-hexatriaconta-9,27-dien-18-yl)oxy)-5-oxopentanoic acid], the entries for the “Particle size (nm)” value in data set [1] (setting [4]), in data set [1] (setting [8]) and in data set [1] (setting [9]) were 119.7 nm, 92.8 nm and 119.7 nm, respectively. For the same molecule, the PDI in data set [1] (setting [5]) amounted to 0.099; in data set [1] (setting [8]) it was 0.19; in data set [1] (setting [9]) it was 0.10. For the same molecule, the “Zeta potential (mV)” value was 9.59 mV in data set [1] (setting [6]), 16.71 mV in data set [1] (setting [8]) and 3.92 mV in data set [1] (setting [9]). The entries for the “Encapsulation rate (%)” value in data set [2] (setting [8]), in data set [2] (setting [9]) and in data set [2] (setting [7]) were 93.2%, 91.3% and 99%, respectively. Further, the “LDH Assay” value in data set [3] is “⊚ (When the obtained value was 0.50 or less, a rating of double-circle (excellent) was given)”.

Regarding `CCCCCCCC/C=C\CCCCCCCCC(CCCCCCC/C=C\CCCCCCCC)OC(=O)C(CCC(=O)O)NC(=N)N` (stereo not shown) [Comparative Example 3, 4-guanidino-5-(((9Z,27Z)-hexatriaconta-9,27-dien-18-yl)oxy)-5-oxopentanoic acid, reference compound], in data set [1] (setting [4]), the “Particle size (nm)” value is 137.0 nm. The PDI in data set [1] (setting [5]) is 0.329. In addition, in data set [1] (setting [6]), the “Zeta potential (mV)” value is reported as −7.66 mV. For the same molecule, the “Encapsulation rate (%)” value in data set [2] (setting [7]) came out at 95%. Further, in data set [3], the “LDH Assay” value was “Δ (when the obtained value was more than 1.0 and less than 6.0, a rating of triangle (fair) was given)”.

As to `CCCCCCCC/C=C\CCCCCCCCC(CCCCCCC/C=C\CCCCCCCC)OC(=O)C(CC(=O)O)NC(=O)C(N)CCCNC(=N)N` (stereo not shown) [Example 1, 3-(2-amino-5-guanidinopentanamido)-4-(((9Z,27Z)-hexatriaconta-9,27-dien-18-yl)oxy)-4-oxobutanoic acid], in data set [1] (setting [4]), the “Particle size (nm)” value is recorded as 116.5 nm. Besides, the PDI in data set [1] (setting [5]) stood at 0.169. Further, the “Zeta potential (mV)” value in data set [1] (setting [6]) was 6.98 mV. Moreover, in data set [2] (setting [7]), the “Encapsulation rate (%)” value is 99%. In addition, the “LDH Assay” value in data set [3] is on record as “⊚ (When the obtained value was 0.50 or less, a rating of double-circle (excellent) was given)”.

Consider `CCCCCCCC/C=C\CCCCCCCCC(CCCCCCC/C=C\CCCCCCCC)OC(=O)C(CO)NC(=O)C(N)CCCNC(=N)N` [Example 4, (9Z,27Z)-hexatriaconta-9,27-dien-18-yl (2S)-2-((S)-2-amino-5-guanidinopentanamido)-3-hydroxypropionate], for which the “Particle size (nm)” value in data set [1] (setting [4]) was 103.6 nm. Also, in data set [1] (setting [5]), the PDI turned out to be 0.101. For the same molecule, the “Zeta potential (mV)” value in data set [1] (setting [6]) turned out to be 15.7 mV. Further, the “Encapsulation rate (%)” value in data set [2] (setting [7]) stood at 100%. In data set [3], the “LDH Assay” value is “Δ (when the obtained value was more than 1.0 and less than 6.0, a rating of triangle (fair) was given)”.

With `CCCCCCCC/C=C\CCCCCCCCC(CCCCCCC/C=C\CCCCCCCC)OC(=O)C(NC(=O)C(N)CCCNC(=N)N)C(C)O` [Example 5, (9Z,27Z)-hexatriaconta-9,27-dien-18-yl (2S)-2-((S)-2-amino-5-guanidinopentanamido)-3-hydroxybutanoate], the “Particle size (nm)” value in data set [1] (setting [4]) amounted to 109.2 nm. The same molecule gave a PDI in data set [1] (setting [5]) of 0.084. In data set [1] (setting [6]), the “Zeta potential (mV)” value is listed as 15.2 mV. The “Encapsulation rate (%)” value in data set [2] (setting [7]) was 100%. In addition, in data set [3], the “LDH Assay” value is reported as “⊚ (When the obtained value was 0.50 or less, a rating of double-circle (excellent) was given)”.

On to `CCCCCCCC/C=C\CCCCCCCCC(CCCCCCC/C=C\CCCCCCCC)OC(=O)C(CC(=O)O)NC(=N)N` (stereo not shown) [Comparative Example 2, 3-guanidino-4-(((9Z,27Z)-hexatriaconta-9,27-dien-18-yl)oxy)-4-oxobutanoic acid, reference compound], for which the “Particle size (nm)” value in data set [1] (setting [4]) turned out to be 117.1 nm. This molecule also displayed a PDI in data set [1] (setting [5]) of 0.085. Besides, the “Zeta potential (mV)” value in data set [1] (setting [6]) is on record as −7.75 mV. Further, the “Encapsulation rate (%)” value in data set [2] (setting [7]) is reported as 95%. In addition, in data set [3], the “LDH Assay” value was “⊚ (When the obtained value was 0.50 or less, a rating of double-circle (excellent) was given)”.
